Assay results reported in patent US6512099B2, “Roselipin derivative” (Kitasato Institute, priority 2001, dated 2003).

How the values were obtained:
[1] = molecular target: diacylglycerol acyltransferase; test: Inhibitory activity against diacylglycerol acyltransferase derived from rat (rat liver microsome fraction); assay type: biochemical; settings: 23° C., 15 minutes, read-out: concentration which inhibited 50% of the diacylglycerol acyltransferase
Experimental: A diacylglycerol acyltransferase activity was measured by means of a partially modified version of a method of Mayorek and Bar-Tana (Journal of Biological Chemistry, vol. 260, pp. […], 1985). That is, using a microsome fraction prepared from a rat liver as an enzyme source, 0.75 mM 1,2-dioleoyl-sn-glycerol and 30 μM [1-^14C]palmitoyl-CoA (0.02 μCi) were added to 175 mM tris-hydrochloric acid (HCl)(pH: 8.0) buffer containing 8 mM MgCl2, 1 mg/ml bovine serum albumin and 2.5 mM diisopropyl fluorophosphonate to a total volume of 200 μL. The mixture was allowed to react at 23° C. for 15 minutes. […] Thereafter, the radioactivity of a triacylglycerol fraction was measured by an RI radio scanner (manufactured by AMBIS CO., LTD.) to measure the diacylglycerol acyltransferase activity.

[2] = system: Raji cell derived from human Burkitt lymphoma; test: Inhibitory activity against production of triacylglycerol in human-derived cell (Raji); assay type: cell-based; settings: 0.5 h, [1-14C]oleic acid, 37° C., 30 minutes, read-out: concentration which inhibited 50% of production of triacylglycerol
Experimental: An influence on production of triacylglycerol was examined in accordance with a method by TOMODA et al. (Journal of Biological Chemistry, vol. 266, pp. 4,212 to 4,219, 1991) by use of a human-derived cell (Raji cell derived from human Burkitt lymphoma). 200 μl of 2.7×10^5 cells/ml of Raji cell solution [1-^14C]oleic acid (0.02 μCi) was allowed to react at 37° C. for 30 minutes. After all lipids were extracted from a mixed solution of chloroform and methanol (mixing ratio=1:2), a measurement was carried out by use of the same method as used for the inhibitory activity against diacylglycerol acyltransferase derived from a rat. The concentrations of the roselipin R-3A, R-3B, R-4 and R-5 compounds which inhibited 50% of production of triacylglycerol were measured.

[3] = system: Mucor racemosus KF223; test: Paper disk growth inhibition circle; assay type: cell-based; settings: 10 μg on 6 mm filter paper
[4] = system: Pyricularia oryzae KB180; assay type: cell-based; settings: 10 μg on 6 mm filter paper
[5] = system: Acholeplasma laidlawii KB174; test: Paper disk growth inhibition circle; assay type: cell-based; settings: 10 μg on 6 mm filter paper
[6] = system: Bacillus subtilis KB27; test: Paper disk growth inhibition circle; assay type: cell-based; settings: Bacillus subtilis KB27 (synthetic medium); 10 μg on 6 mm filter paper

Structure (SMILES)	IC50 [1]	IC50 [2]	Diameter of Inhibition Circle [3]	Diameter of Inhibition Circle [4]	Diameter of Inhibition Circle [5]	Diameter of Inhibition Circle [6]
CCC(C)CC(C)CC(C)C(O)C(C)/C=C(\C)C(O)C(C)/C=C(\C)C(OC)C(C)/C=C(\C)C(=O)OC (stereo not shown) [roselipin R-5]	> 984 µM	250 µM	–	–	–	–
CCC(C)CC(C)CC(C)C(O[C@@H]1OC(CO)[C@@H](O)C(O)C1O)C(C)/C=C(\C)C(O)C(C)/C=C(\C)C(O)C(C)/C=C(\C)C(=O)OC (stereo partly shown) [roselipin R-4]	> 762 µM	200 µM	12 mm	16 mm	–	–
CCC(C)CC(C)CC(C)C(O)C(C)/C=C(\C)C(O)C(C)/C=C(\C)C(O)C(C)/C=C(\C)C(=O)OC[C@@H](O)[C@H](O)[C@H](O)CO (stereo partly shown) [roselipin R-3B]	33 µM	10 µM	–	–	–	–
CCC(C)CC(C)CC(C)C(O)C(C)/C=C(\C)C(O)C(C)/C=C(\C)C(O)C(C)/C=C(\C)C(=O)OC[C@@H](O)[C@@H](O)[C@H](O)CO (stereo partly shown) [roselipin R-3A]	60 µM	11 µM	14 mm	–	10 mm	10 mm
